Results on 12 compounds are retold here after PubChem BioAssay (NCI).

What all share (assay): inhibition of tumour cell growth, NCI panel, 48 h
The subject of assay [1] is DU-145 prostate.
In assay [2] the test system is HCT-15 colon.
Assay [3] has as its system IGROV1 ovarian.
Assay [4] has as its system KM12 colon.
Assay [5] has as its system MCF7 breast.
The test system of assay [6] is MDA-MB-231 breast.
In assay [7] the test system is MDA-N.
The subject of assay [8] is NCI-H226 lung.
In assay [9] the test system is NCI-H23 lung.
Assay [10] has as its system OVCAR-3 ovarian.
In assay [11] the test system is OVCAR-8 ovarian.
Assay [12] deals with SF-268 CNS.
The test system of assay [13] is SK-MEL-28 melanoma.
Assay [14] has as its system SK-MEL-5 melanoma.
Assay [15] concerns SK-OV-3 ovarian.
In assay [16] the test system is SR leukemia.
Assay [17] has as its system U251 CNS.
For assay [18], the system named is UACC-62 melanoma.
Assay [19] deals with HOP-92 NSCLC.

Each structure is given as a SMILES string.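 1) Cells in 96-well plates. 2) Compound, 48 h, 5 concentrations. 3) Linear interpolation between surrounding doses. 4) Unreached endpoint = highest concentration. TGI: concentration producing complete growth inhibition.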

Regarding `O=C(n1[nH]c(=O)n(-c2ccc([N+](=O)[O-])cc2)c1=O)C(Cl)(Cl)Cl`, the TGI in assay [1], in [2], in assay [3], in assay [4], in [5] and in [6] was > 75 µM in each case. In addition, the TGI in [7], in assay [8], in assay [9], in [10], in assay [11] and in assay [12] was > 75 µM each time. Moreover, the TGI in assay [13], in assay [14], in [15], in [16], in [17] and in [18] was > 75 µM each time.
Turning to `CC1N(O)C(c2ccccc2)C(c2ccccc2)=[N+]1[O-]` (stereo unspecified), the TGI in assay [2], in assay [19], in assay [3], in assay [4], in assay [5] and in assay [6] was > 100 µM in each case. Besides, the TGI in assay [7], in assay [8], in assay [9], in [10], in assay [11] and in assay [13] was > 100 µM each time. Moreover, the TGI in assay [14], in assay [15], in assay [16], in [17] and in [18] was > 100 µM each time.
Regarding `COc1cc(/C=C2\CCC(C)c3c2nc(N)c(C#N)c3-c2cc(OC)c(OC)c(OC)c2)cc(OC)c1OC` (stereo unspecified), the TGI in assay [1], in assay [2], in [19], in assay [3], in assay [4] and in assay [5] was > 100 µM in each case. In addition, the TGI in assay [6] was > 100 µM; in assay [7], > 100 µM; in assay [11] it was 40.3 µM; in assay [12] it was > 100 µM; in assay [13], > 100 µM; in assay [14], > 100 µM. In addition, the TGI in assay [15], in [16], in assay [17] and in assay [18] was > 100 µM throughout.
With `COc1c(C(CC(C)C)OC(C)=O)ccc2c1C(=O)OCc1cc(C)cc(O)c1O2` (stereo unspecified), the TGI in [1] came to 25.8 µM; in assay [2], 23.5 µM; in assay [19], 24.5 µM; in [3], 30.4 µM; in assay [4], 35.4 µM; in assay [5] it was 25.6 µM. Besides, the TGI worked out at 29.9 µM in assay [7]; 30 µM in assay [8]; 23.3 µM in [9]; 22.3 µM in assay [10]; 33.1 µM in assay [11]; 27.9 µM in [12]. For the same compound, the TGI in assay [13] is 29.4 µM; in [14], 23.2 µM; in assay [15] it was 31 µM; in assay [16], > 100 µM; in assay [17] it was 28.1 µM; in [18], 25.5 µM.
Turning to `COCC1OCCN1C` (stereo unspecified), the TGI in [2], in assay [19], in assay [3], in [4], in [5] and in assay [6] was > 100 µM throughout. The TGI in assay [7], in [8], in assay [9], in [10], in [11] and in assay [12] was > 100 µM each time. Further, the TGI in [14], in assay [15], in assay [16], in assay [17] and in assay [18] was > 100 µM throughout.
`COc1ccc(-c2cc(=O)c3c(O)c(OC)c(O)cc3o2)cc1O`: the TGI in assay [1] was > 100 µM; in [2], > 100 µM; in assay [19], > 85.9 µM; in assay [3], 40.2 µM; in assay [4] it was 18.6 µM; in assay [5], 40.9 µM. The TGI is > 100 µM in assay [6]; > 100 µM in assay [7]; > 90.8 µM in assay [8]; > 100 µM in assay [9]; > 100 µM in assay [10]; > 100 µM in [11]. The TGI in assay [12] was > 100 µM; in [13], > 100 µM; in assay [14], 14.9 µM; in assay [15], > 93.8 µM; in assay [17], > 100 µM; in assay [18], 31.4 µM.
Regarding `CC(=O)/C(=C/N1C(=O)CC(=O)NC1=S)C(=O)Nc1ccccc1C`, the TGI in [1], in assay [2], in assay [19], in assay [3], in [4] and in assay [5] was > 100 µM throughout. In addition, the TGI was > 100 µM in [6]; > 100 µM in [7]; > 100 µM in assay [8]; > 100 µM in assay [9]; 96.4 µM in [10]; > 100 µM in assay [11]. The TGI in assay [12] is > 100 µM; in assay [13], > 100 µM; in [14], > 100 µM; in [15], > 100 µM; in [17], > 100 µM; in assay [18] it was 83.8 µM.
In the case of `Cc1cc(Cl)ccc1NC(=O)/C(CC(=O)CC(c1ccccc1)c1c(O)c2ccccc2oc1=O)=N\O` (stereo unspecified), the TGI in assay [1], in [2], in [19], in assay [3], in assay [4] and in assay [5] was > 100 µM in each case. Also, the TGI in [6], in assay [7], in assay [8], in assay [9], in [10] and in assay [11] was > 100 µM throughout. Moreover, the TGI in assay [12], in [13], in assay [14], in assay [15], in assay [17] and in assay [18] was > 100 µM in each case.
`COc1ccc(OC)c2sc(N3C(=O)/C(=C/c4ccccc4S)N=C3c3ccccc3)nc12`: the TGI in assay [1] is > 100 µM; in assay [2] it was > 100 µM; in assay [19], > 100 µM; in assay [3], > 100 µM; in assay [4], > 100 µM; in assay [5], 36.5 µM. Further, the TGI in [6] was > 100 µM; in [7], 49.5 µM; in assay [10], > 100 µM; in assay [11] it was > 100 µM; in assay [12] it was > 100 µM; in assay [13], > 100 µM. Besides, the TGI is 40.6 µM in [14]; > 100 µM in assay [15]; 35.2 µM in [16]; 73.8 µM in [17]; 52.2 µM in assay [18].
With `NC(=Nc1ccc(Cl)c(Cl)c1)c1ccccc1N`, the TGI is > 100 µM in [1]; > 100 µM in [2]; 8.47 µM in assay [19]; 97.9 µM in [3]; > 100 µM in assay [4]; > 100 µM in assay [5]. The TGI in [6] was > 100 µM; in assay [7], 53.4 µM; in assay [8] it was > 100 µM; in [9], > 100 µM; in assay [10], > 100 µM; in assay [11], > 100 µM. The TGI in assay [12] was > 100 µM; in assay [13] it was 52.2 µM; in assay [14], 54.7 µM; in assay [15] it was > 100 µM; in assay [17] it was > 100 µM; in assay [18], > 100 µM.
`CC(C)CC(NC(=O)OCc1ccccc1)C(=O)NCCCCC(N)C(=O)NC(CCCCNC(=O)C(CC(C)C)NC(=O)OCc1ccccc1)C(=O)NC(CCCCNC(=O)C(CC(C)C)NC(=O)OCc1ccccc1)C(=O)NC(CCCCNC(=O)C(CC(C)C)NC(=O)OCc1ccccc1)C(=O)NC(CCCCNC(=O)C(CC(C)C)NC(=O)OCc1ccccc1)C(=O)NC(CCCCNC(=O)C(CC(C)C)NC(=O)OCc1ccccc1)C(=O)O` (stereo unspecified): the TGI in assay [1], in [2], in assay [3], in [5], in assay [6] and in assay [7] was > 100 µM in each case. For the same compound, the TGI in assay [8], in assay [9], in assay [10], in assay [11], in assay [14] and in assay [16] was > 100 µM in each case. Also, the TGI in [17] and in [18] was > 100 µM throughout.
`COc1ccc(OC)c2c(=O)cc(-c3ccccc3)[nH]c12`: the TGI in [1], in [2], in [3], in assay [4], in [5] and in assay [6] was > 100 µM in each case. Further, the TGI in assay [7], in assay [8], in assay [9], in assay [10], in assay [11] and in [12] was > 100 µM each time. The TGI in [13], in assay [15], in assay [16], in assay [17] and in [18] was > 100 µM in each case.
